Assay results as given in patent US10647680B2, “Urea compound, preparation method therefor and medical use thereof” (Ancureall Pharmaceutical (Shanghai) Co., Ltd., priority 2016, dated 2020).
Counter-ions that a name gives are not always drawn.

What was measured:
[1] = tested on: MOLM-13 (FLT3 ITD+/− mutant type); assay: In vitro growth inhibition (GI50), MOLM-13; assay type: cell-based, human; details: Homo sapiens, MOLM-13; Cell lines of leukemia; read-out: GI 50 MOLM-13 FLT3 (ITD+/−)
Excerpt: (§1) 1. Cell Lines and Cell Cultures
(§2) Tumor cell line is an effective cell model for studying the inhibition of tumor cell growth or proliferation in vitro. In the present invention, a representative tumor cell line was selected to determine the cell growth inhibition activity of the present compound. All cell lines used were from ATCC, DSMZ, and the Cell Bank of the Chinese Academy of Sciences. Cell culture conditions and methods were in accordance with the requirements of each cell line. Cells were subcultured in vitro for no more than 3 passages each time, and as required, single-clone purification and identification of cell lines could be carried out.
(§3) The cell culture media used were RPMI1640 (Gibco), MEM (Gibco), McCOY'S5A (Gibco), and IMDM (Gibco). The complete medium was prepared by supplement with 5˜20% fetal calf serum (Gibco), 1% double-antibiotics (10000 units/mL penicillin and 10000 units/mL), 2 mM glutamine or 1 mM sodium pyruvate, respectively.
(§4) The human acute […] monomonocyte leukemia cell line MV4-11 (FLT3 ITD+/+ mutant type, ATCC) was cultured in a complete medium comprising 1×IMDM and 10% FBS. Human acute myeloid leukemia cell line MOLM-13 (FLT3 ITD+/− mutant type, DSMZ), human acute lymphoblastic leukemia cell line RS4; 11 (FLT3 wild type, ATCC), human chronic granulocytic leukemia cell line K562 (FLT3 negative expression, positive expression of BCR-ABL fusion protein, ATCC), human promyelocytic leukemia cell line HL-60 (FLT3 wild type, ATCC), human B lymphoblastic leukemia cell line RAMOS (positive expression of Brutons tyrosine protein kinase, ATCC), human acute myeloid leukemia cell line Kasumi-1 (c-Kit N822K mutant type, ATCC), human acute monocytic leukemia cell line U937 (FLT3 wild-type, ATCC), human acute myeloid leukemia cell line OCI-AML3 (NPMc+ mutant type, ATCC), human acute myeloid leukemia cell line KG-1 (expressing FGFR1OP2-FGFR1 fusion protein, ATCC) were cultured in a complete medium comprising 1×RPMI1640 and 10% FBS, respectively.
(§5) The suspension cells were collected by centrifugation. The supernatant was discarded and the cell pellet was resuspended and counted. Different cell concentrations (5˜10×10^4 cells/mL) were prepared according to the growth cycle of each cell line and then seeded on a 96-well plate (Corning), 100 μL/well. The cells were incubated overnight at 37° C., 5% CO2. The compounds were added to the cells on the second day with 2 wells in parallel. The final concentration of organic solvent shall not exceed 1%. The cells were continually incubated for 3 to 5 days, and then subjected to MTT assay.
(§6) The compound was stored in a concentration of 10 mM at −20° C. and diluted to 2- or 10-fold series prior to use.
(§7) Dojindo CCK8 reagent kit was used as MTT assay. […] FC meter was used as microplate reader.
(§8) For adherent cells, culture medium was removed and immediately replaced with the fresh prepared medium which contains 10% CCK8 reagent (100 μL/well). For the suspension cells, CCK8 was directly added to 10% of the final concentration. The cells were continually incubated for 1˜4 h. […] The experiment was independently repeated 1˜3 times, and subject to biological statistical analysis. 4. Experimental Results
(§9) The initial concentration of the compound was 5,000 nM, then it was serially diluted by 2-fold or 10-fold to 0.01 nM. The GI50 value of each test compound was calculated according to the GI50 assay and calculation method. The experiments were repeated 1 to 3 times, and data were subjected to biological statistical analysis.

[2] = tested on: RAMOS (positive expression of Brutons tyrosine protein kinase); assay: In vitro growth inhibition (GI50), RAMOS; assay type: cell-based; details: Homo sapiens, Cell lines of leukemia, read-out: GI 50 Ramos BTK
Excerpt: as §1, §2, §3, §4, §5, §6, §7, §8, §9

[3] = tested on: KG-1 (expressing FGFR1OP2-FGFR1 fusion protein); assay: In vitro growth inhibition (GI50), KG-1; assay type: cell-based; details: Homo sapiens; Cell lines of leukemia; read-out: GI 50 KG-1 FGFR1OP 2-FGFR1
Excerpt: as §1, §2, §3, §4, §5, §6, §7, §8, §9

U937 (FLT3 wild-type) = assay: In vitro growth inhibition (GI50), U937; assay type: cell-based; details: Homo sapiens, U-937; Cell lines of leukemia; read-out: GI 50 U937 FLT 3(WT)
Excerpt: as §1, §2, §3, §4, §5, §6, §7, §8, §9

[4] = tested on: Kasumi-1 (c-Kit N822K mutant type); assay: In vitro growth inhibition (GI50), Kasumi-1; assay type: cell-based; details: Homo sapiens, Cell lines of leukemia, read-out: GI 50 Kasumi-1 Kit (N822K)
Excerpt: as §1, §2, §3, §4
as §5, with “Adherent cells were digested with 0.25% pancreatin-EDTA (Gibco). The suspension” for “The suspension”
(§10) The compound of the present invention and the control compound were dissolved in DMSO (Sigma) respectively, with the purity of more than 98%. The compound was stored in a concentration of 10 mM at −20° C. and diluted to 2- or 10-fold series prior to use.
(§11) Dojindo CCK8 reagent kit was used as MTT assay. THERMO […] FC meter was used as microplate reader.
(§12) For adherent cells, culture medium was removed and immediately replaced with the fresh prepared medium which contains 10% CCK8 reagent (100 μL/well). For the suspension cells, CCK8 was directly added to 10% of the final concentration. The cells were continually incubated for 1˜4 h. When a dark yellow color could be observed in the solvent control wells, the absorbance value at OD450 nm was measured and the cell growth rate was calculated according to the following formula: Cell Growth Rate (%)=100*(T−T0)/(C−T0) T=optical density of drug treatment cell well—optical density of blank control well; T0=optical density of cell well before drug treatment—optical density of blank control well; C=optical density of cell well of solvent control group—optical density of blank control well. The concentration value of 50% inhibition of cell growth (GI50) was calculated according to the drug concentration and cell growth rate curve. […]

RS4; 11 (FLT3 wild type) = assay: In vitro growth inhibition (GI50), RS4; 11; assay type: cell-based, human; details: Homo sapiens, RS4-11; Cell lines of leukemia; read-out: GI 50 RS4: 11 FLT3 (WT)
Excerpt: as §1, §2, §3, §4, §5, §6, §7, §8, §9

[5] = tested on: K562 (FLT3 negative expression, positive expression of BCR-ABL fusion protein); assay: In vitro growth inhibition (GI50), K562; assay type: cell-based; details: Homo sapiens, Cell lines of leukemia, read-out: GI 50 K562 BCR-ABL
Excerpt: as §1, §2, §3, §4, §5, §6, §7, §8, §9

[6] = tested on: MV4-11 (FLT3 ITD+/+ mutant type); assay: In vitro growth inhibition (GI50), MV4-11; assay type: cell-based, human; details: Homo sapiens, MV4-11; Cell lines of leukemia; read-out: GI 50 MV4-11 FLT3 (ITD +/+)
Excerpt: as §1, §2, §3, §4, §5, §6, §7, §8, §9

[7] = tested on: OCI-AML3 (NPMc+ mutant type); assay: In vitro growth inhibition (GI50), OCI-AML3; assay type: cell-based; details: Homo sapiens, OCI-AML-3; Cell lines of leukemia; read-out: GI 50 OCI- AML3 NPMc+
Excerpt: as §1, §2, §3, §4, §5, §6, §7, §8, §9

HL-60 (FLT3 wild type) = assay: In vitro growth inhibition (GI50), HL-60; assay type: cell-based; details: Homo sapiens, Cell lines of leukemia, read-out: GI 50 HL60 FLT3 (WT)
Excerpt: as §1, §2, §3, §4
as §5, with “Adherent cells were digested with 0.25% pancreatin-EDTA (Gibco). The suspension” for “The suspension”
as §10, §11, §12

| GI50 [1] [nM] | GI50 [2] [nM] | GI50 (U937 (FLT3 wild-type)) [nM] | GI50 (RS4; 11 (FLT3 wild type)) [nM] | GI50 [5] [nM] | GI50 [6] [nM] | GI50 [7] [nM] | GI50 (HL-60 (FLT3 wild type)) [nM] | SMILES | GI50 [3] [nM] | GI50 [4] [nM] |
| --- | --- | --- | --- | --- | --- | --- | --- | --- | --- | --- |
| 1 to 10 | > 1000 | > 1000 | 100 to 1000 | 100 to 1000 | 1 to 10 | > 1000 | > 1000 | CN(C)c1ncnc2ncn(-c3ccc(NC(=O)Nc4cc(C(C)(C)C)on4)cc3)c12 [Compound 59, 1-(5-tert-butyl-isoxazol-3-yl)-3-[4-(6-dimethylamino-purin-7-yl)-phenyl]-urea] | 100 to 1000 | > 1000 |
| 10 to 100 | > 1000 | > 1000 | > 1000 | > 1000 | 10 to 100 | > 1000 | > 1000 | CC(C)(C)c1cc(N)n(C(=O)Nc2ccc(-n3cnc4cc(F)ccc43)cc2)n1 [Compound 125, 5-amino-3-tert-butyl-pyrazol-1-carboxylic acid [4-(5-fluoro-benzimidazol-1-yl)-phenyl]-amide] | > 1000 | > 1000 |
| 0.1 to 1 | > 1000 | > 1000 | > 1000 | > 1000 | 0.1 to 1 | > 1000 | > 1000 | CC(C)(C)c1cc(NC(=O)Nc2ccc(-n3cnc4ccccc43)cc2)no1 [Compound 3, 1-(4-benzimidazol-1-yl-phenyl)-3-(5-tert-butyl-isoxazol-3-yl)-urea] | > 1000 | > 1000 |
| 0.1 to 1 | > 1000 | > 1000 | > 1000 | > 1000 | 0.1 to 1 | > 1000 | > 1000 | CCOc1ccc2c(c1)ncn2-c1ccc(NC(=O)Nc2cc(C(C)(C)C)on2)cc1 [Compound 6, 1-(5-tert-butyl-isoxazol-3-yl)-3-[4-(5-ethoxyl-benzimidazol-1-yl)-phenyl]-urea] | > 1000 | > 1000 |
| 1 to 10 | > 1000 | > 1000 | > 1000 | > 1000 | 1 to 10 | > 1000 | > 1000 | Cc1cc(F)cc2ncn(-c3ccc(NC(=O)Nc4cc(C(C)(C)C)n[nH]4)cc3)c12 [Compound 97, 1-(5-tert-butyl-2H-pyrazol-3-yl)-3-[4-(5-fluoro-7-methyl-benzimidazol-1-yl)-phenyl]-urea] | > 1000 | > 1000 |
| 10 to 100 | > 1000 | > 1000 | > 1000 | > 1000 | 10 to 100 | > 1000 | > 1000 | COc1ncnc2ncn(-c3ccc(NC(=O)Nc4cc(C(C)(C)C)on4)cc3)c12 [Compound 57, 1-(5-tert-butyl-isoxazol-3-yl)-3-[4-(6-methoxyl-purin-7-yl)-phenyl]-urea] | > 1000 | > 1000 |
| 100 to 1000 | > 1000 | > 1000 | > 1000 | > 1000 | 100 to 1000 | > 1000 | > 1000 | CC(C)(C)c1cc(NC(=O)Nc2ccc(-n3nnc4ccccc43)cc2)no1 [Compound 48, 1-(4-benzotriazol-1-yl-phenyl)-3-(5-tert-butyl-isoxazol-3-yl)-urea] | > 1000 | > 1000 |
| – | > 1000 | > 1000 | > 1000 | > 1000 | – | > 1000 | > 1000 | Cc1cc(N)nn1C(=O)Nc1ccc(-n2cnc3ccccc32)cc1 [Compound 113, 3-amino-5-methylpyrazol-1-carboxylic acid (4-benzimidazol-1-yl-phenyl)-amide] | > 1000 | > 1000 |
| – | > 1000 | – | – | – | – | > 1000 | – | CC(C)(C)c1cc(NC(=O)Nc2ccc(-c3cn4c(n3)sc3cc(OCCN5CCOCC5)ccc34)cc2)no1 [AC220, N-(5-tert-butyl-isoxazol-3-yl)-N′-{4-[7-(2-morpholin-4-yl-ethoxy)imidazo[2,1-b][1,3]benzothiazol-2-yl]phenyl}urea dihydrochloride, reference compound] | > 1000 | – |
| 0.1 to 1 | > 1000 | > 1000 | > 1000 | – | 0.1 to 1 | > 1000 | > 1000 | Cn1nc(C(C)(C)C)cc1NC(=O)Nc1ccc(-n2cnc3cc(OCCN4CCOCC4)ccc32)cc1 [Compound 102] | – | > 1000 |
| 0.1 to 1 | – | > 1000 | 100 to 1000 | 100 to 1000 | 0.1 to 1 | > 1000 | > 1000 | CC(C)(C)c1cc(NC(=O)Nc2ccc(-n3cnc4cc(OCCOCCO)ccc43)cc2)no1 [Compound 14, 1-(5-tert-butyl-isoxazol-3-yl)-3-(4-{5-[2-(2-hydroxy-ethoxyl)-ethoxyl]-benzimidazol-1-yl}-phenyl)-urea] | > 1000 | > 1000 |
| 0.1 to 1 | > 1000 | > 1000 | > 1000 | – | 0.1 to 1 | > 1000 | > 1000 | COCCOc1ccc2c(c1)ncn2-c1ccc(NC(=O)Nc2cc(C(C)(C)C)nn2C)cc1 [Compound 101, 1-(5-tert-butyl-2-methyl-2H-pyrazol-3-yl)-3-{4-[5-(2-methoxyl-ethoxyl)-benzimidazol-1-yl]-phenyl}urea] | – | > 1000 |
